# Experimental data published in PubChem BioAssay AID1963827 (Molecular Pharmacology Branch, DTP, NCI, 2024).
# pIC50: −log10 of the molar value.
# Test system: 994946-033-R-J1-PDC complex spheroid viability
# Test: Anticancer human tumor 994946-033-R-J1-PDC patient-derived melanoma cell line growth inhibition [POLQ]
# Conditions: for pIC50: curve of first compound; for viability, T/C: stronger effect = lower value
# How it was run: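 Complex spheroid viability model combining PDC tumour cells with endothelial (HUVEC) and MSC stromal cells. Novobiocin, ART-558 or RP6685 were tested singly and in combination with standard and investigational anticancer drugs. Each was titrated in half-log steps from near clinical Cmax, or from 10 microM where Cmax was unknown.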
# [1] = second compound 0.0316 µM, first compound 0.00316 µM
# [2] = second compound 0.0316 µM, first compound 0.01 µM
# [3] = second compound 0.0316 µM, first compound 0.0316 µM
# [4] = second compound 0.0316 µM, first compound 0.1 µM
# [5] = second compound 0.0316 µM, first compound 0.316 µM
# [6] = second compound 0.0316 µM, first compound 1 µM
# [7] = second compound 0.1 µM, first compound 0.00316 µM
# [8] = second compound 0.1 µM, first compound 0.01 µM
# [9] = second compound 0.1 µM, first compound 0.0316 µM
# [10] = second compound 0.1 µM, first compound 0.1 µM
# [11] = second compound 0.1 µM, first compound 0.316 µM
# [12] = second compound 0.1 µM, first compound 1 µM
# [13] = second compound 0.316 µM, first compound 0.00316 µM
# [14] = second compound 0.316 µM, first compound 0.01 µM
# [15] = second compound 0.316 µM, first compound 0.0316 µM
# [16] = second compound 0.316 µM, first compound 0.1 µM
# [17] = second compound 0.316 µM, first compound 0.316 µM
# [18] = second compound 0.316 µM, first compound 1 µM
# [19] = second compound 1 µM, first compound 0.00316 µM
# [20] = second compound 1 µM, first compound 0.01 µM
# [21] = second compound 1 µM, first compound 0.0316 µM
# [22] = second compound 1 µM, first compound 0.1 µM
# [23] = second compound 1 µM, first compound 0.316 µM
# [24] = second compound 1 µM, first compound 1 µM
# [25] = second compound 3.16 µM, first compound 0.00316 µM
# [26] = second compound 3.16 µM, first compound 0.01 µM
# [27] = second compound 3.16 µM, first compound 0.0316 µM
# [28] = second compound 3.16 µM, first compound 0.1 µM
# [29] = second compound 3.16 µM, first compound 0.316 µM
# [30] = second compound 3.16 µM, first compound 1 µM
# [31] = second compound 10 µM, first compound 0.00316 µM
# [32] = second compound 10 µM, first compound 0.01 µM
# [33] = second compound 10 µM, first compound 0.0316 µM
# [34] = second compound 10 µM, first compound 0.1 µM
# [35] = second compound 10 µM, first compound 0.316 µM
# [36] = second compound 10 µM, first compound 1 µM
# 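Note: spheroids exposed to drugs for 7 days.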
# 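Throughout, for viability, T/C: 100% = DMSO vehicle treated spheroids.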
smiles,measurement,setting,value
CCc1c2c(nc3ccc(O)cc13)-c1cc3c(c(=O)n1C2)COC(=O)[C@]3(O)CC + Cc1cccc(N(C)C(=O)C2C(O)CCN2c2nc(C)cc(C(F)(F)F)c2C#N)c1,pIC50,second compound 0.0316 µM,> 8.50
same,pIC50,second compound 0.1 µM,> 8.50
same,pIC50,second compound 0.316 µM,> 8.50
same,pIC50,second compound 1 µM,> 8.50
same,pIC50,second compound 3.16 µM,> 8.50
same,pIC50,second compound 10 µM,> 8.50
same,"viability, T/C",[1],17.5%
same,"viability, T/C",[2],10.9%
same,"viability, T/C",[3],5%
same,"viability, T/C",[4],5.25%
same,"viability, T/C",[5],2.7%
same,"viability, T/C",[6],1.11%
same,"viability, T/C",[7],18.9%
same,"viability, T/C",[8],10%
same,"viability, T/C",[9],7.4%
same,"viability, T/C",[10],5.26%
same,"viability, T/C",[11],3.12%
same,"viability, T/C",[12],0.8%
same,"viability, T/C",[13],18.6%
same,"viability, T/C",[14],8.02%
same,"viability, T/C",[15],5.77%
same,"viability, T/C",[16],4.13%
same,"viability, T/C",[17],4.1%
same,"viability, T/C",[18],1.27%
same,"viability, T/C",[19],18.7%
same,"viability, T/C",[20],8.88%
same,"viability, T/C",[21],5.58%
same,"viability, T/C",[22],7.75%
same,"viability, T/C",[23],3.43%
same,"viability, T/C",[24],1.3%
same,"viability, T/C",[25],26.8%
same,"viability, T/C",[26],12%
same,"viability, T/C",[27],8.11%
same,"viability, T/C",[28],5.61%
same,"viability, T/C",[29],2.9%
same,"viability, T/C",[30],0.8%
same,"viability, T/C",[31],17.9%
same,"viability, T/C",[32],9.1%
same,"viability, T/C",[33],5.89%
same,"viability, T/C",[34],4%
same,"viability, T/C",[35],2.6%
same,"viability, T/C",[36],0.66%
COc1cccc(OCCCN)c1-c1cc(Nc2cnc(C#N)cn2)n[nH]1 + Nc1ccc(C#CCN(C(=O)Cc2ncc(C(F)(F)F)cc2C(F)(F)F)c2ccc(F)cc2)nn1,pIC50,second compound 0.0316 µM,7.60
same,pIC50,second compound 0.1 µM,7.63
same,pIC50,second compound 0.316 µM,7.77
same,pIC50,second compound 1 µM,7.79
same,pIC50,second compound 3.16 µM,7.63
same,pIC50,second compound 10 µM,7.71
same,"viability, T/C",[1],71%
same,"viability, T/C",[2],66.9%
same,"viability, T/C",[3],34.4%
same,"viability, T/C",[4],49%
same,"viability, T/C",[5],14.3%
same,"viability, T/C",[6],17.4%
same,"viability, T/C",[7],86.9%
same,"viability, T/C",[8],69.2%
same,"viability, T/C",[9],38.4%
same,"viability, T/C",[10],39.4%
same,"viability, T/C",[11],25%
same,"viability, T/C",[12],24.3%
same,"viability, T/C",[13],92.2%
same,"viability, T/C",[14],66.1%
same,"viability, T/C",[15],31.9%
same,"viability, T/C",[16],19.9%
same,"viability, T/C",[17],25.6%
same,"viability, T/C",[18],15.7%
same,"viability, T/C",[19],80.1%
same,"viability, T/C",[20],60.7%
same,"viability, T/C",[21],34.6%
same,"viability, T/C",[22],24.4%
same,"viability, T/C",[23],17.6%
same,"viability, T/C",[24],19%
same,"viability, T/C",[25],94.6%
same,"viability, T/C",[26],66.6%
same,"viability, T/C",[27],47.5%
same,"viability, T/C",[28],24.2%
same,"viability, T/C",[29],28.7%
same,"viability, T/C",[30],19.9%
same,"viability, T/C",[31],100%
same,"viability, T/C",[32],64.5%
same,"viability, T/C",[33],30.5%
same,"viability, T/C",[34],44.3%
same,"viability, T/C",[35],30.3%
same,"viability, T/C",[36],19.1%
COc1cc2cc(C(=O)CCC(=O)O)sc2cc1OC + Nc1ccc(C#CCN(C(=O)Cc2ncc(C(F)(F)F)cc2C(F)(F)F)c2ccc(F)cc2)nn1,pIC50,second compound 0.0316 µM,< 5.00
same,pIC50,second compound 0.1 µM,< 5.00
same,pIC50,second compound 0.316 µM,< 5.00
same,pIC50,second compound 1 µM,< 5.00
same,pIC50,second compound 3.16 µM,< 5.00
same,pIC50,second compound 10 µM,< 5.00
same,"viability, T/C",[3],81.7%
same,"viability, T/C",[4],99.5%
same,"viability, T/C",[5],92.4%
same,"viability, T/C",[6],83.2%
same,"viability, T/C","second compound 0.0316 µM, first compound 3.16 µM",86.7%
same,"viability, T/C","second compound 0.0316 µM, first compound 10 µM",67.9%
same,"viability, T/C",[9],126%
same,"viability, T/C",[10],101%
same,"viability, T/C",[11],102%
same,"viability, T/C",[12],92.1%
same,"viability, T/C","second compound 0.1 µM, first compound 3.16 µM",87.2%
same,"viability, T/C","second compound 0.1 µM, first compound 10 µM",87.1%
same,"viability, T/C",[15],111%
same,"viability, T/C",[16],86%
same,"viability, T/C",[17],87.6%
same,"viability, T/C",[18],109%
same,"viability, T/C","second compound 0.316 µM, first compound 3.16 µM",72.3%
same,"viability, T/C","second compound 0.316 µM, first compound 10 µM",96%
same,"viability, T/C",[21],93.5%
same,"viability, T/C",[22],98%
same,"viability, T/C",[23],80.1%
same,"viability, T/C",[24],79.4%
same,"viability, T/C","second compound 1 µM, first compound 3.16 µM",88.9%
same,"viability, T/C","second compound 1 µM, first compound 10 µM",95.8%
same,"viability, T/C",[27],116%
same,"viability, T/C",[28],75.5%
same,"viability, T/C",[29],111%
same,"viability, T/C",[30],96.3%
same,"viability, T/C","second compound 3.16 µM, first compound 3.16 µM",94.9%
same,"viability, T/C","second compound 3.16 µM, first compound 10 µM",66.8%
same,"viability, T/C",[33],80.5%
same,"viability, T/C",[34],81.9%
same,"viability, T/C",[35],90.7%
same,"viability, T/C",[36],91.8%
same,"viability, T/C","second compound 10 µM, first compound 3.16 µM",115%
same,"viability, T/C","second compound 10 µM, first compound 10 µM",78.8%
